From US7815900B1, “Use of C3-C5 monosaccharides to protect keratinous fibers” (L'Oréal S.A., priority 2000, dated 2010)

Assays:
[1] = Cuticle loss estimated by UV transmittance of suspension; details: relaxed ethnic hair, greater transmittance = less cuticle loss
Method: (§1) Kinky hair was relaxed using 2.5% sodium hydroxide (20 min at room temperature). The hair was thoroughly rinsed with water, and a treatment solution was applied for 10 min at 45° C. Each of the following treatment solutions were tested: a) 1% D-xylose, b) 5% D-xylose, and c) deionized water-control treatment.
The cuticle loss was estimated as follows. The relaxed/treated hair (0.5 g) was immersed in 2.5 mL deionized water for 15 min at 45° C. The hair was removed and UV transmittance of the remaining cloudy suspension was determined. The greater the transmittance, the less material is suspended, and therefore, the less damage to the hair.

[2] = Tensile strength (work to break) of relaxed hair after treatment; details: relaxed ethnic hair, 10 min at 45° C.
Method: as §1

[3] = Protein loss from hair in water; details: bleached hair treated 5 times (1% solutions; Xylo-Biose Syrup 1.5%), then 1 h at 45° C. in deionized water
Method: XyloBiose Syrup is a raw material that contains about 15 wt % of xylobiose (dimer) and about 12 wt % of xylose. Xylo-Oligo 95P is a raw material containing about 22 wt % of xylobiose. Bleached hair was rinsed and blot-dried with a paper-towel. The treatment solution was then applied to the hair for 10 min at 45° C., and the hair was blow-dried. The procedure was repeated 5 times. Each of the following solutions was tested: • 1% D-Xylose • 1% Xylo-Oligo 95P • 1.5% XyloBiose Syrup • deionized water-control treatment
Following blow drying, a hair swatch (0.5 g) was immersed in 25 mL of deionized water for 1 h at 45° C. and the water was analyzed for the protein content. Id.

SMILES: O=C[C@H](O)[C@@H](O)[C@H](O)CO [D-Xylose]
- Transmittance, at 600 nm ([1]; 1% solution): 0.9545
- Transmittance, at 600 nm ([1]; 5% solution): 0.9339
- Work to Break ([2]; 1% solution): 749 +/− 151 J/m^2
- Work to Break ([2]; 5% solution): 1,200 +/− 222 J/m^2
- Protein loss [3]: 200.9 +/− 36.5 microgram/g hair
